Positions count from the first letter of the chain named.
Legend:
[1] = target: T1, STING (Mus musculus, UniProt Q3TBT3); assay: Metabolic labelling with [3H] palmitate, Flag-STING in HEK293T cells; assay type: cell-based; set-up: expressed in transfected cells; host or cells: HEK293T; conditions: HEK293T expressing Flag-STING; 1 µM; CMA 2 h
T1 sequence (Q3TBT3 1-378): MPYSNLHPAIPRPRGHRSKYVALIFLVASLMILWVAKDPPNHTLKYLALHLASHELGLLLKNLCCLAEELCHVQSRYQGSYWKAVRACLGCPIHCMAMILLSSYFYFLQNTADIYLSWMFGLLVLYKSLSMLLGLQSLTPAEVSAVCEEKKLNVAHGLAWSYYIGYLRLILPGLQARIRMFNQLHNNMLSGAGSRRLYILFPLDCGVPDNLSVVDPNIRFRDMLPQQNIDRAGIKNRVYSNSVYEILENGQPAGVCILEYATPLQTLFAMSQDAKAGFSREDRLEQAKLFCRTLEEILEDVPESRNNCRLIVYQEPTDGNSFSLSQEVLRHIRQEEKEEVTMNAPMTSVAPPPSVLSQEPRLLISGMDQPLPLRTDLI
Procedure: Reporter activity was measured 16 h after compound treatment. A nonlinear regression analysis was performed. […] Circles indicate substitutes compared to C-176. d, e, Chemical compounds from (c) were tested at 0.5 µM for inhibitory activity in HEK293T cells transfected with STING (e) or RIG-I (f) in conjunction with IFN-• luciferase reporter, respectively. b, e, f, Values of inhibitor-treated cells were normalized to DMSO-treated cells. […] Cytokine levels were normalized to DMSO-treated control cells. A nonlinear regression analysis was performed for cGAMP stimulation. b, c, BMDMs were pre-treated with C-178 (0.25 µM) and stimulated with cGAMP, cyclic di-GMP, CMA, 90mer dsDNA or LPS for 3 h. The induction of Ifnb1 mRNA levels was assessed by RT-qPCR. d, Heatmaps of RNA sequencing analysis of BMDMs treated with DMSO or CMA and with or without addition of C-178. […] Reporter activity was measured 16 h after transfection and values were normalized to DMSO-treated control cells. c, BMDMs were treated with C-178 (0.25 µM) for 1 h, washed or left untreated and after an additional hour stimulated with cGAMP. […] Flag-STING was immunoprecipitated from whole cell lysate and analysed by autoradiography. In parallel, cell lysates were analysed by immunoblotting for p-TBK1 and STING. d, HEK293T cells expressing STING were treated as indicated (C-178 (1 µM)) and stimulated with CMA for 1.5 h. […]

[2] = target: T1, STING; assay: CMA-induced serum cytokines in mice; assay type: in vivo, C57BL/6 mice; set-up: tissue Jackson Laboratories 000664; host or cells: whole animal, C57BL/6J mice; conditions: pre-treated 1 h or 4 h before i.p. CMA; serum 4 h later
[3] = target: T2, Flag-STING (Mus musculus, UniProt Q3TBT3); assay: Protein mass spectrometry of immunoprecipitated Flag-STING; assay type: binding; conditions: Flag-STING; 1 µM, 30min
T2 construct: expressed in transfected cells; host or cells: HEK293T (lentiviral transduction, induced overnight)
T2 sequence (Q3TBT3 1-378): T1 sequence (Q3TBT3 1-378)

[4] = target: T3, Flag-STING (Mus musculus, UniProt Q3TBT3, C91S); assay: as above; assay type: binding; conditions: Flag-STING C91S; 1µM
T3 construct: expressed in transfected cells; host or cells: HEK293T (lentiviral transduction, induced overnight)
T3 sequence (Q3TBT3 1-378 C91S): T1 sequence (Q3TBT3 1-378) with C91S

O=C(Nc1ccc(I)cc1)c1ccc([N+](=O)[O-])o1 [C-176, N-(4-iodophenyl)-5-nitro-2-furamide]
[^3H] palmitate labelling of STING [1]: inhibited | increase in serum concentration of IL-6 [2]: completely abrogated | increase in serum concentration of type I IFNs [2]: completely abrogated | covalent modification of STING, mass shift [3]: irreversibly modify STING | covalent binding to STING-C91S [4]: absence of covalent binding
